Assay: Half life in human
Format: ADME

First: Cn1cc(-c2cnn3ccc(N4CCC[C@@H]4c4cc(F)ccc4OCC(F)F)nc23)cn1
Second: Cn1cc(-c2cnn3ccc(N4CCC[C@@H]4c4cc(F)ccc4F)nc23)cn1
The half-life of the first is 2.8-fold higher: 8.3 min for the first, 3 min for the second.

In the case of C[C@@H](Nc1ccn2ncc(-c3cnn(C)c3)c2n1)c1cc(F)ccc1OCC(F)F, the half-life is reported as 315 min.
